Results published in patent EP0502987B1, “ACYLATED BRADYKININ ANTAGONISTS AND USES THEREFOR” (TRUSTEES OF BOSTON UNIVERSITY, priority 1989, dated 1994).
Square brackets hold non-standard residues; d marks the D form. Peptide text beside a SMILES is read from it. Hyp = O=C(O)[C@@H]1C[C@@H](O)CN1; 2Thi = N[C@@H](Cc1cccs1)C(=O)O

Test system: vasodepressor response of exogenous bradykinin
Assay: Inhibition of the vasodepressor response to exogenous bradykinin in awake rats
Assay type: in vivo, Wistar rats
Protocol: An adamantane acetic acid-modified bradykinin analog was synthesized by the solid-phase method described in Example 1. The analog designed by Stewart et al. was also synthesized and used as a control. The control (or model) and test analogs had the following structure: Model: D-Arg-Arg-Pro-Hyp-Gly-Thi-Ser-D-Phe-Thi-Arg Test: [formula] The antagonistic potency of the analogs was assessed by their ability to inhibit the vasodepressor response of exogenous bradykinin in awake rats.
Intact male Wistar rats (Charles River Breeding Laboratories, Wilmington, MA, U.S.A.) weighing 225-250 g were used and maintained on a regular Purina Rat Chow diet and tap water in a room at constant temperature (23 ± 1°C) with 12 hour dark/12 hour light cycles. One day before the experiment, the right carotid and the iliac artery in the rats were catheterized with polyethylene tubing (PE 50) under light ether anesthesia. A "Y" type connection was connected to the carotid artery catheter with two ends: one for injecting bradykinin and the other for infusing the bradykinin analogs. All of the catheters were externalized subcutaneously at the back of the neck. On the day of the experiment, the rats were maintained conscious and unrestrained in plastic cages. Arterial pressure (AP), mean arterial pressure (MAP) and heart rate (HR) were monitored through a Gould-Statham P23 ID pressure transducer (Gould, Cleveland, OH) connected to the iliac catheter and recorded on a Gould 2200S paper chart recorder. A half-hour period was allowed before the actual initiation of the experiment. […]
The effectiveness of each analog was tested by regression analysis of the data obtained in each rat, using a logarithmic transformation of the linear portion of each dose-response curve to calculate the ED₂₂ and ED₉₀ values. The comparison between the two analogs at the same dose was determined using the Students Nonpaired T Test. […]
The pA₂ is the most commonly used parameter to quantitatively express the potency of an antagonist. […]

Structure (SMILES): N=C(N)NCCC[C@@H](N)C(=O)N[C@@H](CCCNC(=N)N)C(=O)N1CCC[C@H]1C(=O)N1C[C@H](O)C[C@H]1C(=O)NCC(=O)N[C@@H](Cc1cccs1)C(=O)N[C@@H](CO)C(=O)N[C@H](Cc1ccccc1)C(=O)N[C@@H](Cc1cccs1)C(=O)N[C@@H](CCCNC(=N)N)C(=O)O [Model Analog, D-Arg-Arg-Pro-Hyp-Gly-Thi-Ser-D-Phe-Thi-Arg] (H-[dR]RP[Hyp]G[2Thi]S[dF][2Thi]R-OH)
- ED₂₂ (dose of analog infused (intracarotid) which inhibits 22% of the vasodepressor response to 250 ng of BK, conscious rats pretreated with enalapril 1 mg/kg, 7 rats, mean ± SE): 1.49 ± 0.29 µg/min
- ED₉₀ (dose of analog infused (intracarotid) which inhibits 90% of the vasodepressor response to 250 ng of BK, conscious rats pretreated with enalapril 1 mg/kg, 7 rats, mean ± SE): 142.50 ± 26.44 µg/min
- pA₂ (anti-vasodepressor potency) (negative logarithm of ED value (ED₂₂) divided by estimated volume of distribution (67ml/kg)): 7.17±0.11
